The target of test [1] is T1, pY705-STAT3 in PBMC (Homo sapiens, UniProt P40763).
T1 construct: Cryopreserved Peripheral Blood Mononuclear Cells (PBMC) are from AllCells; host or cells: cryopreserved PBMC
Briefly: MSD-pSTAT-PBMC Assay (pSTAT3, IL-6 stimulated). Format: cell-based. The following applies: compound 3 hrs, then 10 ng/mL IL-6 for 10 min. Put shortly: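 Human PBMCs were pretreated with compound for 3 h, then stimulated with 10 ng/mL IL-6 for 10 min. Lysate pY705-STAT3 was measured by MSD sandwich immunoassay (anti-STAT3 capture) and corrected for unstimulated background. Signal was normalized to DMSO, and IC50 came from variable-slope regression.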

Test [2] addresses T2, pY641-STAT6 in PBMC (Homo sapiens, UniProt P42226).
T2 construct: Cryopreserved Peripheral Blood Mononuclear Cells (PBMC) are from AllCells; host or cells: cryopreserved PBMC
T2 sequence (P42226 1-847): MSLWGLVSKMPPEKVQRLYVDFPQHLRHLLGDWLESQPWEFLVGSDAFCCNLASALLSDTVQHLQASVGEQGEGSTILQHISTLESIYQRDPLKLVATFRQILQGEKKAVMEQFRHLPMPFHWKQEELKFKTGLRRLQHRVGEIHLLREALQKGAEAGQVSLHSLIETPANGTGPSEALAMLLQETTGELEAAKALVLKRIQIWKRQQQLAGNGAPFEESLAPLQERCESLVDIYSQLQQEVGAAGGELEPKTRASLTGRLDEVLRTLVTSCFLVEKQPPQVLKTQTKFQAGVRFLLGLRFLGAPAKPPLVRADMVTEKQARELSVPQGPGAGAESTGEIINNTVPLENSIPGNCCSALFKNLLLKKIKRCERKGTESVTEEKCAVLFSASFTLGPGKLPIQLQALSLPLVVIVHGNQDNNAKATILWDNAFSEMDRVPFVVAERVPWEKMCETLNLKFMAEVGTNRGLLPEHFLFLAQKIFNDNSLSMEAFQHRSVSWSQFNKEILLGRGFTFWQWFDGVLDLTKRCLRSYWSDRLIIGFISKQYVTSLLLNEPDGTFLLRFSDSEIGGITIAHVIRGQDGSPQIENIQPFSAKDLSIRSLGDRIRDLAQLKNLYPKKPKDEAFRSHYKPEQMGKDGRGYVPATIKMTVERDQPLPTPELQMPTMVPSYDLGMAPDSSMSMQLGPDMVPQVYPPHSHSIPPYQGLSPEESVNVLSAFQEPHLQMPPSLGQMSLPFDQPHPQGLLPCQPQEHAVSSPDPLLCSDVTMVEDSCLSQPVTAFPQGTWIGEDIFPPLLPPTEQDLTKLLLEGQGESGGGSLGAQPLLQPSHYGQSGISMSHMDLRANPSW
Briefly: MSD-pSTAT-PBMC Assay (pSTAT6, IL-4 stimulated). Format: cell-based. The settings on record: compound 3 hrs, then 1 ng/mL IL-4 for 10 min. In outline: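 Thawed human PBMC rested overnight in IMDM/10% FBS, then got compound for 3 hrs before a 10 min cytokine pulse: 1 ng/mL IL-4 for pSTAT6, 10 ng/mL IL-6 for pSTAT3. Lysates went to MSD sandwich capture on total STAT6 or STAT3 with phospho-specific detection. IC50 came from background-subtracted, DMSO-normalized signal.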

Where [3] appears, read: PBMC, Table 115, read-out: STAT3.
The mark [4] stands for this setting: PBMC, Table 1114, read-out: pSTAT3.
[5] abbreviates: PBMC, Table 1114, read-out: pSTAT6.
Where [6] appears, read: PBMC, Table 115, read-out: STAT6.

Where two headings read alike, the source gives them in different places. Where only a bound is given, the exact number is not on record here.

T1 sequence (P40763 whole entry): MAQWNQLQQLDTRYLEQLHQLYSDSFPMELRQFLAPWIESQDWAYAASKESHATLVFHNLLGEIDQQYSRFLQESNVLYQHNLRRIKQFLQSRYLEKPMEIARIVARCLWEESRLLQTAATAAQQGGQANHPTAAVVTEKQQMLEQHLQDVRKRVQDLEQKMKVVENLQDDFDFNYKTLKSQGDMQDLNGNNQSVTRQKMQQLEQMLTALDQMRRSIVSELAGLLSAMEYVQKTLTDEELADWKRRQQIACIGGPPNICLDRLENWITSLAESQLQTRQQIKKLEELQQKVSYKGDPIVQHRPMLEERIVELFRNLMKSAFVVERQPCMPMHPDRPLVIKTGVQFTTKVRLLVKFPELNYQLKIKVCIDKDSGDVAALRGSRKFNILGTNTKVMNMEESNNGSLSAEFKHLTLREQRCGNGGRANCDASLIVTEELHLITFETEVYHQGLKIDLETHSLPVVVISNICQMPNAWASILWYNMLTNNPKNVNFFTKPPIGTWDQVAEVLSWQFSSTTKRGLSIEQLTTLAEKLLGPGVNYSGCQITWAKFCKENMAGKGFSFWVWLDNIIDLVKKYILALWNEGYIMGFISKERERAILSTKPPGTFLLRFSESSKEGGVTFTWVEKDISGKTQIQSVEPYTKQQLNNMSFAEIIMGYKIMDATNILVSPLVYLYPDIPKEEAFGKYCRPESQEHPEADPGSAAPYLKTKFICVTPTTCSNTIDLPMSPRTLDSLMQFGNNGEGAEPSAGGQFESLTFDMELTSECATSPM

On to `CCCOC(=O)[C@H](C)NP(=O)(Oc1ccccc1)C(F)(F)c1ccc2ccc(C(=O)N[C@H]3CCCC[C@H]4CC[C@@H](C(=O)N5C[C@H](c6cc[nH]c(=O)c6)CC56CC6)N4C3=O)cc2c1` (stereo partly drawn) [Compound 419, propyl ((difluoro(7-(((3S,6S,10aS)-5-oxo-3-((S)-6-(2-oxo-1,2-dihydropyridin-4-yl)-4-azaspiro[2.4]heptane-4-carbonyl)decahydropyrrolo[1,2-a]azocin-6-yl)carbamoyl)naphthalen-2-yl)methyl)(phenoxy)phosphoryl)-L-alaninate], for which the IC50 in test [1] (setting [3]) was greater than 3000 nM; in test [2] (STAT6, PBMC, Table 115), 100 to 1000 nM.

Take “S-(2-((((2- (((3S,6S,9aS)-3-(3-(3- cyanophenyl) azetidine-1-carbonyl)-5- oxooctahydro-1H- pyrrolo[1,2-a]azepin-6- yl)carbamoyl)benzo[b] thiophen-5-yl) difluoromethyl)(((3- methylbutanoyl)thio) methoxy)phosphoryl) oxy)ethyl) 3- methylbutane thioate [Compound 176]”: the IC50 in test [1] (setting [4]) is less than 100 nM; in test [2] (setting [5]) it was 1000 to 3000 nM.

On to `CC(C)(C)C(=O)OCOP(=O)(OCOC(=O)C(C)(C)C)C(F)(F)c1ccc2sc(C(=O)N[C@H]3CCC[C@H]4CC[C@@H](C(=O)N5CC(c6cccnc6)C5)N4C3=O)cc2c1` [Compound 189, (((difluoro(2-(((3S,6S,9aS)-5-oxo-3-(3-(pyridin-3-yl)azetidine-1-carbonyl)octahydro-1H-pyrrolo[1,2-a]azepin-6-yl)carbamoyl)benzo[b]thiophen-5-yl)methyl)phosphoryl)bis (oxy))bis (methylene) bis(2,2-dimethyl-propanoate)], for which the IC50 is less than 100 nM in test [1] (setting [4]) and greater than 3000 nM in test [2] (setting [5]).

Take `CCCOC(=O)[C@H](C)NP(=O)(Cc1ccc2sc(C(=O)N[C@H]3CCC[C@H]4CC[C@@H](C(=O)N5CC(c6cnccc6N(C)C)C5)N4C3=O)cc2c1)Oc1ccccc1` (stereo partly drawn) [Compound 973, propyl (((2-(((3S,6S,9aS)-3-(3-(4-(dimethylamino)pyridin-3-yl)azetidine-1-carbonyl)-5-oxooctahydro-1H-pyrrolo[1,2-a]azepin-6-yl)carbamoyl)benzo [b]thiophen-5-yl)methyl)(phenoxy)phosphoryl)-L-alaninate]: the IC50 in test [1] (setting [3]) was less than 100 nM; in test [2] (STAT6, PBMC, Table 115), greater than 3000 nM.

Regarding `CC(C)(C)C(=O)OCOP(=O)(OCOC(=O)C(C)(C)C)C(F)(F)c1ccc2sc(C(=O)N[C@H]3CCC[C@H]4CC[C@@H](C(=O)N5CC(C(=O)N6CCOCC6)C5)N4C3=O)cc2c1` [Compound 187, (((difluoro(2-(((3S,6S,9aS)-3-(3-(morpholine-4-carbonyl)azetidine-1-carbonyl)-5-oxooctahydro-1H-pyrrolo[1,2-a]azepin-6-yl)carbamoyl)benzo[b]thiophen-5-yl)methyl)phosphoryl)bis (oxy))bis (methylene) bis(2,2-dimethyl-propanoate)], the IC50 in test [1] (setting [4]) is less than 100 nM; in test [2] (setting [5]), 1000 to 3000 nM.

For the compound `CCCOC(=O)[C@H](C)NP(=O)(Oc1ccccc1)C(F)c1ccc2sc(C(=O)N[C@H]3CCCC[C@H]4CC[C@@H](C(=O)N5C[C@@H](c6cccc(OC)c6)[C@H](C#N)C56CC6)N4C3=O)cc2c1` (single isomer, unassigned) [Compound 326], the IC50 in test [1] (setting [3]) was greater than 3000 nM; in test [2] (STAT6, PBMC, Table 115), less than 100 nM.

As for `CCCOC(=O)[C@H](C)NP(=O)(Cc1ccc2ccc(C(=O)N[C@H]3CCCC[C@H]4CC[C@@H](C(=O)N5C[C@H](c6cc[nH]c(=O)c6)CC56CC6)N4C3=O)cc2c1)Oc1ccccc1` (stereo partly drawn) [Compound 402, propyl (((7-(((3S,6S,10aS)-5-oxo-3-((S)-6-(2-oxo-1,2-dihydropyridin-4-yl)-4-azaspiro[2.4]heptane-4-carbonyl)decahydropyrrolo[1,2-a]azocin-6-yl)carbamoyl)naphthalen-2-yl)methyl)(phenoxy)phosphoryl)-L-alaninate], the IC50 in test [1] (setting [3]) was greater than 3000 nM; in test [2] (STAT6, PBMC, Table 115) it was 1000 to 3000 nM.

As to `CC(C)CC(=O)SCCOP(=O)(OCOC(=O)OC1COC1)C(F)(F)c1ccc2sc(C(=O)N[C@H]3CCCC[C@H]4CC[C@@H](C(=O)N5C[C@H](c6cc[nH]c(=O)c6)[C@@H](C#N)C5)N4C3=O)cc2c1` (single isomer, unassigned) [Compound 1093], the IC50 was greater than 3000 nM in test [1] (setting [3]) and 100 to 1000 nM in test [2] (setting [6]).

Regarding `CC(C)CC(=O)SCCOP(=O)(OCCSC(=O)CC(C)C)C(F)(F)c1ccc2sc(C(=O)N[C@H]3CCCC[C@H]4CC[C@@H](C(=O)N5CC(c6ccccc6)CC56CC6)N4C3=O)cc2c1` (stereo partly drawn) [Compound 1082, S,S′-((((difluoro(2-(((3S,6S,10aS)-5-oxo-3-(6-phenyl-4-azaspiro[2.4]heptane-4-carbonyl)decahydropyrrolo[1,2-a]azocin-6-yl)carbamoyl)benzo [b]thiophen-5-yl)methyl)phosphoryl)bis(oxy))bis(ethane-2,1-diyl)) bis(3-methylbutanethioate)], the figures for the IC50 in test [1] (setting [3]) and in test [2] (setting [6]) were greater than 3000 nM and 100 to 1000 nM, respectively.

Regarding `CCCC(=O)SCCOP(=O)(Oc1cccnc1)C(F)(F)c1ccc2sc(C(=O)N[C@H]3CCCC[C@H]4CC[C@@H](C(=O)N5C[C@@H](C#N)[C@H](c6ccccc6)C5)N4C3=O)cc2c1` (single isomer, unassigned) [Compound 139, S-(2-((((2-(((3S,6S,10aS)-3-((3S,4R or 3R,4S)-3-cyano-4-phenylpyrrolidine-1-carbonyl)-5-oxodecahydro-pyrrolo[1,2-a]azocin-6-yl)carbamoyl)benzo[b]thiophen-5-yl)difluoromethyl) (pyridin-3-yloxy)phosphoryl)oxy)ethyl) butanethioate], the IC50 in test [1] (setting [4]) is 100 to 1000 nM; in test [2] (pSTAT6, PBMC, Table 1114) it was less than 100 nM.

For `CC(C)C(=O)SCCOP(=O)(OCCSC(=O)C(C)C)C(F)(F)c1ccc2sc(C(=O)N[C@H]3CCC[C@H]4CC[C@@H](C(=O)N5CC(c6cccnc6)C5)N4C3=O)cc2c1` [Compound 1009, S,S′-((((difluoro(2-(((3S,6S,9aS)-5-oxo-3-(3-(pyridin-3-yl)azetidine-1-carbonyl)octahydro-1H-pyrrolo[1,2-a]azepin-6-yl)carbamoyl)benzo [b]thiophen-5-yl)methyl)phosphoryl)bis(oxy))bis(ethane-2,1-diyl)) bis(2-methyl-propanethioate)], the IC50 in test [1] (setting [3]) was less than 100 nM; in test [2] (setting [6]), 100 to 1000 nM.

Regarding `CCCOC(=O)[C@H](C)NP(=O)(Oc1ccccc1)C(F)c1ccc2sc(C(=O)N[C@H]3CCCC[C@H]4CC[C@@H](C(=O)N5CCC(c6cccnc6)C5)N4C3=O)cc2c1` (stereo partly drawn) [Compound 320, propyl ((fluoro(2-(((3S,6S,10aS)-5-oxo-3-(3-(pyridin-3-yl)pyrrolidine-1-carbonyl)decahydropyrrolo[1,2-a]azocin-6-yl)carbamoyl)benzo [b]thiophen-5-yl)methyl)(phenoxy)phosphoryl)-L-alaninate], the IC50 in test [1] (setting [3]) was less than 100 nM; in test [2] (STAT6, PBMC, Table 115) it was 100 to 1000 nM.

As to `CCCC(=O)SCCOP(=O)(Oc1ccccc1)C(F)(F)c1ccc2sc(C(=O)N[C@H]3CCC[C@H]4CC[C@@H](C(=O)N5CC(c6cccnc6)C5)N4C3=O)cc2c1` (stereo partly drawn) [Compound 136, S-(2-(((difluoro(2-(((3S,6S,9aS)-5-oxo-3-(3-(pyridin-3-yl)azetidine-1-carbonyl)octahydro-1H-pyrrolo[1,2-a]azepin-6-yl)carbamoyl)benzo[b]thiophen-5-yl)methyl) (phenoxy)phosphoryl)oxy)ethyl) butanethioate], the IC50 in test [1] (pSTAT3, PBMC, Table 1114) was less than 100 nM; in test [2] (pSTAT6, PBMC, Table 1114), 1000 to 3000 nM.

Turning to `CC(C)CC(=O)SCCOP(=O)(OCCSC(=O)CC(C)C)[C@@H](F)c1ccc2sc(C(=O)N[C@H]3CCCC[C@H]4CC[C@@H](C(=O)N5C[C@@H](C#N)[C@H](c6cc[nH]c(=O)c6)C5)N4C3=O)cc2c1` (single isomer, unassigned) [Compound 1090], the IC50 was 1000 to 3000 nM in test [1] (setting [3]) and 100 to 1000 nM in test [2] (setting [6]).

The values are drawn from US20250215029A1 (Recludix Pharma, Inc., priority 2022, published 2025).
